Columns and labels:
RelB = target: T1, RelB (Homo sapiens, UniProt Q01201); test: TransAM NF-κB Family DNA Binding ELISA, RelB; conditions: RelB binding to DNA IC50, FIG. 8, non-canonical pathway
T1 sequence (Q01201 1-579): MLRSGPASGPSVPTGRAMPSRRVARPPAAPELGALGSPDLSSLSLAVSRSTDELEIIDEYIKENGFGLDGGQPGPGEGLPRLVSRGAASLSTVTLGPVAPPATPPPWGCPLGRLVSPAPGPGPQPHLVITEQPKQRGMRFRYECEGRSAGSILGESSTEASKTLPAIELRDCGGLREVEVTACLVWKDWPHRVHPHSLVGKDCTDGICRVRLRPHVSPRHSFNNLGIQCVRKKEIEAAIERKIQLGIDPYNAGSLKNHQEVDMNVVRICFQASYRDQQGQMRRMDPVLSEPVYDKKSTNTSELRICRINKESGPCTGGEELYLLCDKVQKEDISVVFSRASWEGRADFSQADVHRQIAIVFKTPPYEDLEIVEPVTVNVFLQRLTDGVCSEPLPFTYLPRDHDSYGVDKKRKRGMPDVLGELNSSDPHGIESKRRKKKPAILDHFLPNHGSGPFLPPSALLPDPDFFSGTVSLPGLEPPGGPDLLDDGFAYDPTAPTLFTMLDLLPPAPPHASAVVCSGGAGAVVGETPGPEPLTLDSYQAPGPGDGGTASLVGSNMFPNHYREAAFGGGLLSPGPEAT
T1 sequence (Q00653 1-454 partner limits assumed): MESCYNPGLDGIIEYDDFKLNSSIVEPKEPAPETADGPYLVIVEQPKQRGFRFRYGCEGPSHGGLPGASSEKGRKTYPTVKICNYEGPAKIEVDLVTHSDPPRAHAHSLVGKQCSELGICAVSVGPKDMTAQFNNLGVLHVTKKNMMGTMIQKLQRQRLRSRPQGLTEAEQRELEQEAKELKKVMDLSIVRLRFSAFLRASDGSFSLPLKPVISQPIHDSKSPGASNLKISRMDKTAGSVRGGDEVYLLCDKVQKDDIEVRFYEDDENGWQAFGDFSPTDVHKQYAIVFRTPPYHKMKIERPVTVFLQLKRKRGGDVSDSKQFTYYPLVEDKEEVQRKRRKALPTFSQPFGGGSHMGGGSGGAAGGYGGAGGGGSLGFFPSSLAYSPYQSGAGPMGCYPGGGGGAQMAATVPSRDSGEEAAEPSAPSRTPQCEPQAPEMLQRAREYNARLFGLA

[1] = system: human peripheral blood mononuclear cells (hPBMCs); test: Cytotoxicity to hPBMCs (CellTiter-Glo); type: cell-based; conditions: hPBMCs, at 40 μM
Method: Human peripheral blood mononuclear cells (hPBMCs) were treated with example 1 or DHMEQ and the percentage of viable cells was assessed 24 hours post drug treatment. The graph represents the mean±the standard deviation of three replicate experiments.
The cytotoxicity profile of the compound of Example 1. The cytotoxicity of the compound of Example 1 was determined for human peripheral blood mononuclear cells (hPBMCs). As with the activity assay, the hPBMCs were treated with 0, 0.2, 1, 10, 20 and 40 μM of the compound of Example 1 for 2 hours, and then induced with 20 ng/ml TNF-α for 48 hours. The number of viable cells was determined using CellTiter-Glo luminescent cell viability assay (Promega (cat #G7573)). […] The selectivity index (the ratio of cytotoxicity CC50 to inhibitory IC50) is assigned to the compound of Example 1.

RelA/p65 = test: Immunostaining of RelA/p65 nuclear translocation in Hek293 cells; type: cell-based; conditions: TNFα 20 ng/ml, 30 minutes
Method: (§1) Specifically, the compound of Example 1 causes the accumulation of activated RelA/p65 in the cytoplasm of cells. Hek293 cells were treated with DHMEQ or the compound of Example 1 (as indicated) with TNFα (20 ng/ml) for 30 minutes. After incubation, the cells were immunostained with anti-p65 antibody (C-20) antibody (Santa Cruz Biotechnology, Santa Cruz, Calif.) and nuclei were counterstained with Dapi. Images were captured using an AE31 inverted microscope with epifluorescence illuminator (Motic, Xiamen, China) and a ProgRes C3 camera (JENOPTIK, Jena, Germany). Individual images of p65 and corresponding nuclei were merged for final figure. Control treated cells (DMSO only) show nuclear accumulation of p65 upon TNFα stimulation.
as §1, with “Immunostaining of RelA/p65. The” for “Specifically, the”, “incubation,” for “incubation, the”, “figure.” for “figure. Control treated cells (DMSO only) show nuclear accumulation of p65 upon TNFα stimulation.”

SMILES: O=C(NC1=CC(=O)C2OC2C1O)c1ccccc1O (stereo not drawn) [DHMEQ, dehydroxymethylepoxyquinomicin, reference compound]
- IC50 (RelB): > 20 µM
- inhibition of cell growth [1]: greater than 60%
- concentration at which TNFα induced nuclear accumulation of p65 was significantly blocked (RelA/p65): higher concentration

From patent US8629164B2, “Inhibitors of NF-κB” (Profectus Biosciences, Inc., priority 2009, dated 2014)
